In the kinase profiling compilation of Christmann-Franck et al. (2016):

Experiments:
AKT1 (human) = AKT1 (human) (UniProt P31749); conditions: compound 1.0 µM; ATP 100 µM
[1] = target: CAMK2A or CAMK2B or CAMK2D or CAMK2G (human) (UniProt Q13555+Q13557+Q9UQM7+Q13554); conditions: compound 1.0 µM; ATP 100 µM
CHEK1 (human) = CHEK1 (human) (UniProt O14757); conditions: ATP 100 µM
[2] = target: CSNK2A1 or CSNK2A2 (human) (UniProt P19784+P68400); conditions: ATP 100 µM
GSK3B (human) = GSK3B (human) (UniProt P49841); conditions: ATP 100 µM
LCK (human) = LCK (human) (UniProt P06239); conditions: ATP 100 µM
MAP2K1 (rabbit) = conditions: compound 1.0 µM; accession and sequence are those of the human protein
MAPK12 (human) = MAPK12 (human) (UniProt P53778); conditions: ATP 100 µM
MAPK13 (human) = MAPK13 (human) (UniProt O15264); conditions: ATP 100 µM
MAPK14 (human) = MAPK14 (human) (UniProt Q16539); conditions: compound 1.0 µM; ATP 100 µM
MAPK8 (human) = MAPK8 (human) (UniProt P45983); conditions: ATP 100 µM
MAPKAPK2 (human) = MAPKAPK2 (human) (UniProt P49137); conditions: ATP 100 µM
MAPKAPK5 (human) = MAPKAPK5 (human) (UniProt Q8IW41); conditions: compound 1.0 µM; ATP 100 µM
PDPK1 (human) = PDPK1 (human) (UniProt O15530); conditions: ATP 100 µM
PRKCA (human) = PRKCA (human) (UniProt P17252); conditions: ATP 100 µM
ROCK2 (rat) = conditions: accession and sequence are those of the human protein
RPS6KA5 KD1 KD2 (human) = RPS6KA5 KD1 KD2 (human) (UniProt O75582); conditions: ATP 100 µM
[3] = tested on: RPS6KB1 (human), P23443 [T412E]; conditions: ATP 100 µM
PHKG1 or PHKG2 (rabbit) [4] = test: radiometric filter-binding kinase assay; conditions: compound 1.0 µM; ATP 100 µM; accession and sequence are those of the human protein
PRKAA1 or PRKAA2 (rat) [5] = test: radiometric filter-binding kinase assay; conditions: compound 1.0 µM; ATP 100 µM; accession and sequence are those of the human protein
PRKACA or PRKACB (cow) [6] = test: radiometric filter-binding kinase assay; conditions: compound 1.0 µM; accession and sequence are those of the human protein
RPS6KA3 KD1 KD2 (rabbit) [7] = test: radiometric filter-binding kinase assay; conditions: compound 1.0 µM; ATP 100 µM; accession and sequence are those of the human protein
MAPK11 (human) = MAPK11 (human) (UniProt Q15759); conditions: ATP 100 µM
MYLK (chicken) [8] = conditions: accession and sequence are those of the human protein
PIK3CG (cow) = conditions: compound 1.0 µM; accession and sequence are those of the human protein
[9] = tested on: SGK1 (human), O00141 [S422D]; conditions: ATP 100 µM
MYLK (chicken) [10] = test: radiometric filter-binding kinase assay; conditions: compound 1.0 µM; accession and sequence are those of the human protein
MYLK2 (rabbit) = test: radiometric filter-binding kinase assay; conditions: compound 1.0 µM; ATP 100 µM; accession and sequence are those of the human protein
MAP2K3 (human) = MAP2K3 (human) (UniProt P46734); conditions: compound 10.0 µM; ATP 100 µM
MAP2K4 (human) = MAP2K4 (human) (UniProt P45985); conditions: compound 10.0 µM; ATP 100 µM
MAP2K6 (human) = MAP2K6 (human) (UniProt P52564); conditions: compound 10.0 µM; ATP 100 µM
MAP2K7 (human) = MAP2K7 (human) (UniProt O14733); conditions: compound 10.0 µM; ATP 100 µM
MAPK1 (mouse) = conditions: compound 10.0 µM; accession and sequence are those of the human protein
PHKG1 or PHKG2 (rabbit) [11] = conditions: compound 10.0 µM; accession and sequence are those of the human protein
PRKAA1 or PRKAA2 (rat) [12] = conditions: compound 10.0 µM; accession and sequence are those of the human protein
PRKACA or PRKACB (cow) [13] = conditions: compound 10.0 µM; accession and sequence are those of the human protein
RPS6KA3 KD1 KD2 (rabbit) [14] = conditions: compound 10.0 µM; accession and sequence are those of the human protein

Sequence of MAPK8 (human) (P45983 whole entry, looked up): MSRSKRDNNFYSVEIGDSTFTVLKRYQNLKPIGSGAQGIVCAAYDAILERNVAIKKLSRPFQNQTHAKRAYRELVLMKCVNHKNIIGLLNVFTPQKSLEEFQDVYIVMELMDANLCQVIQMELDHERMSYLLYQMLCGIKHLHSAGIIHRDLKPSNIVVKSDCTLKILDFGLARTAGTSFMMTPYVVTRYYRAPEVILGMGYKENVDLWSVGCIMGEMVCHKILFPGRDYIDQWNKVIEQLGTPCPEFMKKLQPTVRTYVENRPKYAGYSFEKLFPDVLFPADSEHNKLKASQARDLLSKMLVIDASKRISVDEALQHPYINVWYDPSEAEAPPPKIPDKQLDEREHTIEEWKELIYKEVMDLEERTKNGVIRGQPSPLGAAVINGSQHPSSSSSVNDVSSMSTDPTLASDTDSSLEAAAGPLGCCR
Sequence of MAPK12 (human) (P53778 whole entry, looked up): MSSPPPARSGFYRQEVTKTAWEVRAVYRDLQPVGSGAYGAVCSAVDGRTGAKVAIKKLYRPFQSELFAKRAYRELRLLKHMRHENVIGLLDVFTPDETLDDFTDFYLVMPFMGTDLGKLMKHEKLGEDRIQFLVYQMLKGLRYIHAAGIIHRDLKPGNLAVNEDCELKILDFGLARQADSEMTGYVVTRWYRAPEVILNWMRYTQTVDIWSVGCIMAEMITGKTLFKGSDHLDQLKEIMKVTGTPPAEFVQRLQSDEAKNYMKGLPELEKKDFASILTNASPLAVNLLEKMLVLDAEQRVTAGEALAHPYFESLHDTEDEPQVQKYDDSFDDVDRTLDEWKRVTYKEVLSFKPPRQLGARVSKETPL
Sequence of AKT1 (human) (P31749 whole entry, looked up): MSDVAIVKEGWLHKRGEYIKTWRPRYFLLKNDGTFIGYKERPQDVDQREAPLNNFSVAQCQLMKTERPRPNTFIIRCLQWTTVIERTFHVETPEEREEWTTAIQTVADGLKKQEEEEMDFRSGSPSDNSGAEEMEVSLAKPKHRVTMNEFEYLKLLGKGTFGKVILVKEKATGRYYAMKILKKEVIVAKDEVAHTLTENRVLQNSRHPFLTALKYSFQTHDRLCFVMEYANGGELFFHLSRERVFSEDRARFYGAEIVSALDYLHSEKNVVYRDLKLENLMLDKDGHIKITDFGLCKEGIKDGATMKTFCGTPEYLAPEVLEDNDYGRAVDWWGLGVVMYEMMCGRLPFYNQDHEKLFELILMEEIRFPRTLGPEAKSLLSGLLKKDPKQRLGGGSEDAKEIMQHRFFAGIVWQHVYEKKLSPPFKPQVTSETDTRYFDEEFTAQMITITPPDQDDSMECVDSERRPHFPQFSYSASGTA
Sequence of MAPKAPK2 (human) (P49137 whole entry, looked up): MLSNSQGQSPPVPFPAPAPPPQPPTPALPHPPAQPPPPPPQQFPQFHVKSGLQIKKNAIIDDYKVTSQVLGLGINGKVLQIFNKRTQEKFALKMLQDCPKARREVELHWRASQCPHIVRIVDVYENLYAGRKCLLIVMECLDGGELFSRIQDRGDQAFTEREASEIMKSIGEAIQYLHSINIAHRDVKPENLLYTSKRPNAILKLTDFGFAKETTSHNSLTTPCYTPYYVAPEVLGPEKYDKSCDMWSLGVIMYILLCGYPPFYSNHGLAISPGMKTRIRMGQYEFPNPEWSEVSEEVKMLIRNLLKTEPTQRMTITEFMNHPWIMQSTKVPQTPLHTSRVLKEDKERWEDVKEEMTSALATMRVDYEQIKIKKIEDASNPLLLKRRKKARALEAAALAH
Sequence of GSK3B (human) (P49841 whole entry, looked up): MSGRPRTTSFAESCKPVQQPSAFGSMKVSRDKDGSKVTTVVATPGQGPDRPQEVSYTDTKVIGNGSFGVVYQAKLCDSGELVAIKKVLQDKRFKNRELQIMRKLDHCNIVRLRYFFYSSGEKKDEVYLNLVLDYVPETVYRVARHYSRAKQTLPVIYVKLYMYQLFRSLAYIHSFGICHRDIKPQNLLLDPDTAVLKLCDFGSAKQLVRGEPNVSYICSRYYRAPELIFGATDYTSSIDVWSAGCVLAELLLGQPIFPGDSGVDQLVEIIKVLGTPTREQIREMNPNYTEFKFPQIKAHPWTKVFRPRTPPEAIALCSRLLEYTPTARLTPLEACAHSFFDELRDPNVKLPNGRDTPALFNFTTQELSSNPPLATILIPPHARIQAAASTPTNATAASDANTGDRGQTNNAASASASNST
Sequence of LCK (human) (P06239 whole entry, looked up): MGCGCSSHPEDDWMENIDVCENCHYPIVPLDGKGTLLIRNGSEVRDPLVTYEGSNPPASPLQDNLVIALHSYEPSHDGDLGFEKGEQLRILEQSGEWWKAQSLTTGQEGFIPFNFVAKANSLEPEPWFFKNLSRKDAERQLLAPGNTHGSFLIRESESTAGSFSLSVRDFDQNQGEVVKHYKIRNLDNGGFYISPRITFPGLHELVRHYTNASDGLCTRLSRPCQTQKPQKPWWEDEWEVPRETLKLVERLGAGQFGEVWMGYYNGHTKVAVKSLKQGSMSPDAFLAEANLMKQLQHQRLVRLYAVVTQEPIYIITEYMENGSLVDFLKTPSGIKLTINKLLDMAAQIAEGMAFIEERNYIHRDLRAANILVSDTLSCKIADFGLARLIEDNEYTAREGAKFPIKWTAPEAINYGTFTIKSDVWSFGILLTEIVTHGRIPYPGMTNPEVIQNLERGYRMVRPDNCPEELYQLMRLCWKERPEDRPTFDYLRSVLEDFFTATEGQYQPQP
Sequence of CHEK1 (human) (O14757 whole entry, looked up): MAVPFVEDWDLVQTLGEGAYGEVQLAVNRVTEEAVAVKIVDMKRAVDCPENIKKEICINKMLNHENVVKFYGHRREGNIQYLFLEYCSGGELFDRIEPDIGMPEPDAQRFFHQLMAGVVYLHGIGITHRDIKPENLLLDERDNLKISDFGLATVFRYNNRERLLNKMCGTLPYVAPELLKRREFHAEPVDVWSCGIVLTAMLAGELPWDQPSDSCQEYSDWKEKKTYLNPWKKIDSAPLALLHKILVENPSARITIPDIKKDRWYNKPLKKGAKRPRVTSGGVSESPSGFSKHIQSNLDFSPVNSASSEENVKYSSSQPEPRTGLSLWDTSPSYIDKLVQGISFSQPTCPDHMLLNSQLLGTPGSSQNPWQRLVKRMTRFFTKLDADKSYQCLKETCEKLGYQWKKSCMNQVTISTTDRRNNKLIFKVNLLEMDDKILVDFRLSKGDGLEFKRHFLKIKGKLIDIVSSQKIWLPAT
Sequence of PDPK1 (human) (O15530 whole entry, looked up): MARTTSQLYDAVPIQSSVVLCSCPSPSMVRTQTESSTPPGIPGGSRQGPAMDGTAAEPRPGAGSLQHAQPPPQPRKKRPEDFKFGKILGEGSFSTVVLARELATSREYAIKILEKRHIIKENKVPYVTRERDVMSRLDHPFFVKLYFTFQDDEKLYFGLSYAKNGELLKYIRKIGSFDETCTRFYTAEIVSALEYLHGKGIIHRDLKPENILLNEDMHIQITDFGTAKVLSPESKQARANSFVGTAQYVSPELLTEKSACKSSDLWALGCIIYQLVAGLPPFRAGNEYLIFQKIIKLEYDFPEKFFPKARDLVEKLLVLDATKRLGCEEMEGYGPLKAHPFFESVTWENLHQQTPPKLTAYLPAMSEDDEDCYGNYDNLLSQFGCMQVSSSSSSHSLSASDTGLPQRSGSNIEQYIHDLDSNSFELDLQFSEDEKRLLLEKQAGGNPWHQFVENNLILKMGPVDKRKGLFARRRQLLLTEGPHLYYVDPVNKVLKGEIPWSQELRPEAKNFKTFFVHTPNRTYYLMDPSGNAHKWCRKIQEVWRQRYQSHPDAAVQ
Sequence of RPS6KB1 (human), P23443 [T412E] (P23443 whole entry T412E, looked up): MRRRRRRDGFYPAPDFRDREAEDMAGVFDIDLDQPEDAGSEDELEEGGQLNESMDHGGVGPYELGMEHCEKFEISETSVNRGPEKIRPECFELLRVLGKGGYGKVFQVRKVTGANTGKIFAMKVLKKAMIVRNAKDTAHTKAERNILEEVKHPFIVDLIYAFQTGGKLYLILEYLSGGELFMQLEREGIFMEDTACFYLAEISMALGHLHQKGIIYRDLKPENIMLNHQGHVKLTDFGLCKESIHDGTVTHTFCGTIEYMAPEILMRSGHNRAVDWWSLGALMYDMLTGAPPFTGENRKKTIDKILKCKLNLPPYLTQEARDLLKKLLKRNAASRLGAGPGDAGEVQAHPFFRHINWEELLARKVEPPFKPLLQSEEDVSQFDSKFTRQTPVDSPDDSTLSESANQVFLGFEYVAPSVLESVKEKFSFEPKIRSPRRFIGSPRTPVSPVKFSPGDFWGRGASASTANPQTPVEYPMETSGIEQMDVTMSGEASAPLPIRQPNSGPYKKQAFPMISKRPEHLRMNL

SMILES: CN[C@@H]1C[C@@H]2O[C@@](C)([C@@H]1OC)n1c3ccccc3c3c4c(c5c6ccccc6n2c5c31)C(=O)N[C@@H]4O
- residual activity (AKT1 (human)): 31%
- residual activity [1]: 69%
- residual activity (CHEK1 (human); compound 1.0 µM): 3%
- residual activity ([2]; compound 1.0 µM): 77%
- residual activity (GSK3B (human); compound 1.0 µM): 83%
- residual activity (LCK (human); compound 1.0 µM): 7%
- residual activity (MAP2K1 (rabbit)): 90%
- residual activity (MAPK12 (human); compound 1.0 µM): 76%
- residual activity (MAPK13 (human); compound 1.0 µM): 91%
- residual activity (MAPK14 (human)): 92%
- residual activity (MAPK8 (human); compound 1.0 µM): 98%
- residual activity (MAPKAPK2 (human); compound 1.0 µM): 90%
- residual activity (MAPKAPK5 (human)): 77%
- residual activity (PDPK1 (human); compound 1.0 µM): 0%
- residual activity (PRKCA (human); compound 1.0 µM): 1%
- residual activity (ROCK2 (rat); compound 1.0 µM): 22%
- residual activity (RPS6KA5 KD1 KD2 (human); compound 1.0 µM): 19%
- residual activity ([3]; compound 1.0 µM): 28%
- residual activity (PHKG1 or PHKG2 (rabbit) [4]): 0%
- residual activity (PRKAA1 or PRKAA2 (rat) [5]): 1%
- residual activity (PRKACA or PRKACB (cow) [6]): 39%
- residual activity (RPS6KA3 KD1 KD2 (rabbit) [7]): 5%

SMILES: CN1C(=O)C(c2c[nH]c3ccccc23)=C(c2c[nH]c3ccccc23)C1=O
- residual activity (PHKG1 or PHKG2 (rabbit) [4]): 100%

SMILES: COC[C@H]1OC(=O)c2coc3c2[C@@]1(C)C1=C(C3=O)[C@@H]2CCC(=O)[C@@]2(C)C[C@H]1OC(C)=O
- residual activity (AKT1 (human)): 96%
- residual activity (CHEK1 (human); compound 1.0 µM): 99%
- residual activity ([2]; compound 1.0 µM): 98%
- residual activity (LCK (human); compound 1.0 µM): 95%
- residual activity (MAP2K1 (rabbit)): 96%
- residual activity (MAPK11 (human); compound 1.0 µM): 74%
- residual activity (MAPK12 (human); compound 1.0 µM): 75%
- residual activity (MAPK14 (human)): 86%
- residual activity (MAPK8 (human); compound 1.0 µM): 97%
- residual activity (MAPKAPK2 (human); compound 1.0 µM): 102%
- residual activity (MAPKAPK5 (human)): 85%
- IC50 (MYLK (chicken) [8]): 260 nM
- residual activity (PDPK1 (human); compound 1.0 µM): 88%
- residual activity (PIK3CG (cow)): 0%
- residual activity (PRKCA (human); compound 1.0 µM): 100%
- residual activity (ROCK2 (rat); compound 1.0 µM): 91%
- residual activity (RPS6KA5 KD1 KD2 (human); compound 1.0 µM): 99%
- residual activity ([3]; compound 1.0 µM): 106%
- residual activity ([9]; compound 1.0 µM): 101%
- residual activity (MYLK (chicken) [10]): 4%
- residual activity (MYLK2 (rabbit)): 104%
- residual activity (PHKG1 or PHKG2 (rabbit) [4]): 100%
- residual activity (PRKAA1 or PRKAA2 (rat) [5]): 106%
- residual activity (PRKACA or PRKACB (cow) [6]): 97%
- residual activity (RPS6KA3 KD1 KD2 (rabbit) [7]): 92%

SMILES: N#CC(=C(\N)Sc1ccccc1N)/C(C#N)=C(/N)Sc1ccccc1N
- residual activity (CHEK1 (human); compound 10.0 µM): 95%
- residual activity ([2]; compound 10.0 µM): 107%
- residual activity (GSK3B (human); compound 10.0 µM): 105%
- residual activity (LCK (human); compound 10.0 µM): 87%
- residual activity (MAP2K3 (human)): 114%
- residual activity (MAP2K4 (human)): 81%
- residual activity (MAP2K6 (human)): 79%
- residual activity (MAP2K7 (human)): 89%
- residual activity (MAPK1 (mouse)): 92%
- residual activity (MAPK11 (human); compound 10.0 µM): 90%
- residual activity (MAPK12 (human); compound 10.0 µM): 100%
- residual activity (MAPK13 (human); compound 10.0 µM): 111%
- residual activity (MAPK8 (human); compound 10.0 µM): 96%
- residual activity (MAPKAPK2 (human); compound 10.0 µM): 102%
- residual activity (PDPK1 (human); compound 10.0 µM): 99%
- residual activity (PHKG1 or PHKG2 (rabbit) [11]): 101%
- residual activity (PRKAA1 or PRKAA2 (rat) [12]): 85%
- residual activity (PRKACA or PRKACB (cow) [13]): 95%
- residual activity (PRKCA (human); compound 10.0 µM): 92%
- residual activity (ROCK2 (rat); compound 10.0 µM): 94%
- residual activity (RPS6KA3 KD1 KD2 (rabbit) [14]): 88%
- residual activity (RPS6KA5 KD1 KD2 (human); compound 10.0 µM): 104%
- residual activity ([3]; compound 10.0 µM): 92%
- residual activity ([9]; compound 10.0 µM): 91%

SMILES: CCCCCCOC(=O)[C@@]1(O)C[C@H]2O[C@]1(C)n1c3ccccc3c3c4c(c5c6ccccc6n2c5c31)C(=O)NC4
- residual activity (PHKG1 or PHKG2 (rabbit) [11]): 0%

SMILES: O=C1NCc2c1c1c3ccccc3[nH]c1c1[nH]c3ccccc3c21
- residual activity (PHKG1 or PHKG2 (rabbit) [11]): 0%

SMILES: CO[C@H]1CC2CC[C@@H](C)[C@@](O)(O2)C(=O)C(=O)N2CCCC[C@H]2C(=O)OC([C@H](C)C[C@@H]2CC[C@@H](O)[C@H](OC)C2)CC(=O)[C@H](C)/C=C(\C)[C@@H](O)[C@@H](OC)C(=O)[C@H](C)C[C@H](C)/C=C/C=C/C=C/1C (some centres not stated)
- residual activity (AKT1 (human)): 91%
- residual activity (CHEK1 (human); compound 1.0 µM): 102%
- residual activity ([2]; compound 1.0 µM): 104%
- residual activity (GSK3B (human); compound 1.0 µM): 89%
- residual activity (LCK (human); compound 1.0 µM): 102%
- residual activity (MAP2K1 (rabbit)): 99%
- residual activity (MAPK12 (human); compound 1.0 µM): 100%
- residual activity (MAPK8 (human); compound 1.0 µM): 98%
- residual activity (MAPKAPK2 (human); compound 1.0 µM): 125%
- residual activity (PDPK1 (human); compound 1.0 µM): 110%
- residual activity (PRKCA (human); compound 1.0 µM): 99%
- residual activity (ROCK2 (rat); compound 1.0 µM): 92%
- residual activity (RPS6KA5 KD1 KD2 (human); compound 1.0 µM): 104%
- residual activity ([3]; compound 1.0 µM): 109%
- residual activity ([9]; compound 1.0 µM): 108%
- residual activity (PHKG1 or PHKG2 (rabbit) [4]): 103%
- residual activity (PRKAA1 or PRKAA2 (rat) [5]): 106%
- residual activity (PRKACA or PRKACB (cow) [6]): 104%
